Results from PubChem BioAssay AID1918932 (Molecular Pharmacology Branch, DTP, NCI, 2023).
Values joined by “and” are separate entries in the source; they are usually repeats but may differ in a detail not shown here. Equal values may be shown once.

Test system: 171881-019-R-J1-PDC complex spheroid viability
Assay: Anticancer human tumor 171881-019-R-J1-PDC patient-derived invasive breast carcinoma cell line growth inhibition
Settings: for viability, T/C: stronger effect = lower value
Summary of the method: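 Multicellular complex spheroids of tumor cells with human endothelial cells (HUVEC) and mesenchymal stem cells; the LSD1 inhibitor iadademstat was combined with standard-of-care or investigational agents. Top concentration at or near clinical Cmax, half-log dilutions; final DMSO ≤0.25%.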

[1] = curve of first compound, second compound 0.1 µM
[2] = curve of first compound, second compound 0.316 µM
[3] = curve of first compound, second compound 1 µM
[4] = curve of first compound, second compound 3.16 µM
[5] = curve of first compound, second compound 10 µM
[6] = second compound 0.1 µM, first compound 0.00316 µM
[7] = second compound 0.1 µM, first compound 0.01 µM
[8] = second compound 0.1 µM, first compound 0.0316 µM
[9] = second compound 0.1 µM, first compound 0.1 µM
[10] = second compound 0.316 µM, first compound 0.00316 µM
[11] = second compound 0.316 µM, first compound 0.01 µM
[12] = second compound 0.316 µM, first compound 0.0316 µM
[13] = second compound 0.316 µM, first compound 0.1 µM
[14] = second compound 1 µM, first compound 0.00316 µM
[15] = second compound 1 µM, first compound 0.01 µM
[16] = second compound 1 µM, first compound 0.0316 µM
[17] = second compound 1 µM, first compound 0.1 µM
[18] = second compound 3.16 µM, first compound 0.00316 µM
[19] = second compound 3.16 µM, first compound 0.01 µM
[20] = second compound 3.16 µM, first compound 0.0316 µM
[21] = second compound 3.16 µM, first compound 0.1 µM
[22] = second compound 10 µM, first compound 0.00316 µM
[23] = second compound 10 µM, first compound 0.01 µM
[24] = second compound 10 µM, first compound 0.0316 µM
[25] = second compound 10 µM, first compound 0.1 µM
[26] = second compound 0.1 µM, first compound 0.316 µM
[27] = second compound 0.1 µM, first compound 1 µM
[28] = second compound 0.316 µM, first compound 0.316 µM
[29] = second compound 0.316 µM, first compound 1 µM
[30] = second compound 1 µM, first compound 0.316 µM
[31] = second compound 1 µM, first compound 1 µM
[32] = second compound 3.16 µM, first compound 0.316 µM
[33] = second compound 3.16 µM, first compound 1 µM
[34] = second compound 10 µM, first compound 0.316 µM
[35] = second compound 10 µM, first compound 1 µM
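Also: spheroids exposed to agents for 7 days after 3 days growth.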

Nc1ccn(C2OC(CO)C(O)C2(F)F)c(=O)n1 (stereo not given) + NC1CCC(NC2CC2c2ccccc2)CC1
IC50 [1]: > 0.3 µM
IC50 [2]: > 0.3 µM
IC50 [3]: > 0.3 µM
IC50 [4]: > 0.3 µM
IC50 [5]: > 0.3 µM
viability, T/C (second compound 0.1 µM, first compound 0.000949 µM): 77.4%
viability, T/C (second compound 0.1 µM, first compound 0.003 µM): 53.8%
viability, T/C (second compound 0.1 µM, first compound 0.00949 µM): 56.2%
viability, T/C (second compound 0.1 µM, first compound 0.03 µM): 59.2%
viability, T/C (second compound 0.1 µM, first compound 0.0949 µM): 57.8%
viability, T/C (second compound 0.1 µM, first compound 0.3 µM): 55.6%
viability, T/C (second compound 0.316 µM, first compound 0.000949 µM): 77.7%
viability, T/C (second compound 0.316 µM, first compound 0.003 µM): 54.9%
viability, T/C (second compound 0.316 µM, first compound 0.00949 µM): 54.6%
viability, T/C (second compound 0.316 µM, first compound 0.03 µM): 58.6%
viability, T/C (second compound 0.316 µM, first compound 0.0949 µM): 56.4%
viability, T/C (second compound 0.316 µM, first compound 0.3 µM): 54.3%
viability, T/C (second compound 1 µM, first compound 0.000949 µM): 85.6%
viability, T/C (second compound 1 µM, first compound 0.003 µM): 56.5%
viability, T/C (second compound 1 µM, first compound 0.00949 µM): 57.8%
viability, T/C (second compound 1 µM, first compound 0.03 µM): 60.4%
viability, T/C (second compound 1 µM, first compound 0.0949 µM): 58%
viability, T/C (second compound 1 µM, first compound 0.3 µM): 54.7%
viability, T/C (second compound 3.16 µM, first compound 0.000949 µM): 84.8%
viability, T/C (second compound 3.16 µM, first compound 0.003 µM): 56%
viability, T/C (second compound 3.16 µM, first compound 0.00949 µM): 60.8%
viability, T/C (second compound 3.16 µM, first compound 0.03 µM): 63.4%
viability, T/C (second compound 3.16 µM, first compound 0.0949 µM): 60.1%
viability, T/C (second compound 3.16 µM, first compound 0.3 µM): 54.7%
viability, T/C (second compound 10 µM, first compound 0.000949 µM): 90.5%
viability, T/C (second compound 10 µM, first compound 0.003 µM): 62.5%
viability, T/C (second compound 10 µM, first compound 0.00949 µM): 64%
viability, T/C (second compound 10 µM, first compound 0.03 µM): 70%
viability, T/C (second compound 10 µM, first compound 0.0949 µM): 68.5%
viability, T/C (second compound 10 µM, first compound 0.3 µM): 64.1%

Cn1ncnc1C1c2n[nH]c(=O)c3cc(F)cc(c23)NC1c1ccc(F)cc1 (stereo not given) + NC1CCC(NC2CC2c2ccccc2)CC1
IC50 [1]: > 0.1 µM
IC50 [2]: > 0.1 µM
IC50 [3]: > 0.1 µM
IC50 [4]: > 0.1 µM
IC50 [5]: > 0.1 µM
viability, T/C (second compound 0.1 µM, first compound 0.000316 µM): 92.3%
viability, T/C (second compound 0.1 µM, first compound 0.001 µM): 79.1%
viability, T/C [6]: 88.4%
viability, T/C [7]: 79.3%
viability, T/C [8]: 81.4%
viability, T/C [9]: 85.7%
viability, T/C (second compound 0.316 µM, first compound 0.000316 µM): 82.1%
viability, T/C (second compound 0.316 µM, first compound 0.001 µM): 76.3%
viability, T/C [10]: 69.3%
viability, T/C [11]: 71.5%
viability, T/C [12]: 81.8%
viability, T/C [13]: 76.7%
viability, T/C (second compound 1 µM, first compound 0.000316 µM): 78.9%
viability, T/C (second compound 1 µM, first compound 0.001 µM): 85.5%
viability, T/C [14]: 70.7%
viability, T/C [15]: 71.7%
viability, T/C [16]: 73.5%
viability, T/C [17]: 79.9%
viability, T/C (second compound 3.16 µM, first compound 0.000316 µM): 90%
viability, T/C (second compound 3.16 µM, first compound 0.001 µM): 78.8%
viability, T/C [18]: 59.2%
viability, T/C [19]: 86.7%
viability, T/C [20]: 78.8%
viability, T/C [21]: 85.7%
viability, T/C (second compound 10 µM, first compound 0.000316 µM): 73%
viability, T/C (second compound 10 µM, first compound 0.001 µM): 84.5%
viability, T/C [22]: 71%
viability, T/C [23]: 76.3%
viability, T/C [24]: 72.6%
viability, T/C [25]: 88.6%

CC1COCCN1c1cc(C2(S(C)(=N)=O)CC2)nc(-c2ccnc3[nH]ccc23)n1 (stereo not given) + NC1CCC(NC2CC2c2ccccc2)CC1
IC50 [1]: 1.68 µM
IC50 [2]: 1.84 µM
IC50 [3]: 1.78 µM
IC50 [4]: 1.83 µM
IC50 [5]: 2.05 µM
viability, T/C [8]: 85.4%
viability, T/C [9]: 85%
viability, T/C [26]: 96.4%
viability, T/C [27]: 73.3%
viability, T/C (second compound 0.1 µM, first compound 3.16 µM): 20.8%
viability, T/C (second compound 0.1 µM, first compound 10 µM): 9.16%
viability, T/C [12]: 85.1%
viability, T/C [13]: 84.2%
viability, T/C [28]: 94.5%
viability, T/C [29]: 81.7%
viability, T/C (second compound 0.316 µM, first compound 3.16 µM): 21.7%
viability, T/C (second compound 0.316 µM, first compound 10 µM): 9.42%
viability, T/C [16]: 88.8%
viability, T/C [17]: 85.4%
viability, T/C [30]: 87%
viability, T/C [31]: 76.2%
viability, T/C (second compound 1 µM, first compound 3.16 µM): 23.7%
viability, T/C (second compound 1 µM, first compound 10 µM): 9.58%
viability, T/C [20]: 88.8%
viability, T/C [21]: 83%
viability, T/C [32]: 86.1%
viability, T/C [33]: 78.7%
viability, T/C (second compound 3.16 µM, first compound 3.16 µM): 24.2%
viability, T/C (second compound 3.16 µM, first compound 10 µM): 11.3%
viability, T/C [24]: 81.8%
viability, T/C [25]: 105%
viability, T/C [34]: 84.7%
viability, T/C [35]: 84.2%
viability, T/C (second compound 10 µM, first compound 3.16 µM): 29.4%
viability, T/C (second compound 10 µM, first compound 10 µM): 9.99%

Nc1ncn(C2CC(O)C(CO)O2)c(=O)n1 (stereo not given) + NC1CC1c1ccc(-c2cccc(O)c2)cc1
IC50 [1]: > 1 µM
IC50 [2]: > 1 µM
IC50 [3]: > 1 µM
IC50 [4]: > 1 µM
IC50 [5]: > 1 µM
viability, T/C [6]: 102%
viability, T/C [7]: 98.4%
viability, T/C [8]: 97.7%
viability, T/C [9]: 88.4%
viability, T/C [26]: 93.8%
viability, T/C [27]: 85.1%
viability, T/C [10]: 102%
viability, T/C [11]: 98.6%
viability, T/C [12]: 95.1%
viability, T/C [13]: 96.2%
viability, T/C [28]: 90.8%
viability, T/C [29]: 90.4%
viability, T/C [14]: 106%
viability, T/C [15]: 102%
viability, T/C [16]: 95%
viability, T/C [17]: 96.3%
viability, T/C [30]: 92.6%
viability, T/C [31]: 85.1%
viability, T/C [18]: 102%
viability, T/C [19]: 96%
viability, T/C [20]: 95.8%
viability, T/C [21]: 96%
viability, T/C [32]: 87%
viability, T/C [33]: 82.1%
viability, T/C [22]: 82.4%
viability, T/C [23]: 80.6%
viability, T/C [24]: 81.4%
viability, T/C [25]: 81%
viability, T/C [34]: 80%
viability, T/C [35]: 74.8%

CC[C@@]1(O)C(=O)OCc2c1cc1n(c2=O)Cc2cc3c(CN(C)C)c(O)ccc3nc2-1
viability, T/C (compound 0.000316 µM): 90.9% and 99.1%
viability, T/C (compound 0.001 µM): 116% and 105%
viability, T/C (compound 0.00316 µM): 129% and 84.4%
viability, T/C (compound 0.01 µM): 64.3% and 70.4%
viability, T/C (compound 0.0316 µM): 67.5% and 66%
viability, T/C (compound 0.1 µM): 46.6% and 37.6%
IC50 (curve of compound): > 0.1 µM and 0.0552 µM

COc1cc(Nc2ncc3c(n2)-c2ccc(Cl)cc2C(c2c(F)cccc2OC)=NC3)ccc1C(=O)O
viability, T/C (compound 0.00316 µM): 91.6% and 57%
viability, T/C (compound 0.01 µM): 85.9% and 64.4%
viability, T/C (compound 0.0316 µM): 84.5% and 63.2%
viability, T/C (compound 0.1 µM): 89% and 58.9%
viability, T/C (compound 0.316 µM): 80.6% and 54.1%
viability, T/C (compound 1 µM): 51.5% and 30.1%
IC50 (curve of compound): > 1 µM and 0.384 µM

COc1ccc([C@@H](O)c2cc(-c3ncnc4cc(N5CCOCC5)ccc34)c(F)cc2Cl)nn1
viability, T/C (compound 0.0316 µM): 101% and 98.9%
viability, T/C (compound 0.1 µM): 128% and 95.7%
viability, T/C (compound 0.316 µM): 98.3% and 76%
viability, T/C (compound 1 µM): 38.5% and 29.6%
viability, T/C (compound 3.16 µM): 7.38% and 8.2%
viability, T/C (compound 10 µM): 6.64% and 11.3%
IC50 (curve of compound): 0.798 µM and 0.599 µM

NC1CCC(NC2CC2c2ccccc2)CC1 (stereo not given)
viability, T/C (compound 0.316 µM): 79.8% and 83.8% and 81.9%
IC50 (compound alone, run of 02/15/2022): > 10 µM

Nc1ccccc1NC(=O)c1ccc(CNC(=O)OCc2cccnc2)cc1
viability, T/C (compound 0.00949 µM): 96.1% and 95.3%
viability, T/C (compound 0.03 µM): 102% and 98.5%
viability, T/C (compound 0.0949 µM): 135% and 108%
viability, T/C (compound 0.3 µM): 45.6% and 92.6%
viability, T/C (compound 0.949 µM): 2.72% and 9.58%
viability, T/C (compound 3 µM): 0.41% and 0.94%
IC50 (curve of compound): 0.278 µM and 0.542 µM
